Where two headings read alike, the source gives them in different places.
Key:
male mice of ddN strain = test: animal or person; format: in vivo; settings: Mus musculus, read-out: D'Amour-Smith method, analgesic ED50
[1] = tested on: female mice of ddN strain; settings: mouse, in vivo
[2] = tested on: male rats of Wistar strain; test: animal or person; format: in vivo; settings: Rattus norvegicus, po, read-out: Haffner method, analgesic ED50

## Cc1c(N(C)C)c(=O)n(-c2ccccc2)n1C [compound 5, Aminopyrine]
Male mice of ddN strain; po
  ED50: ≥ 640 mg/kg
Male mice of ddN strain; sc
  ED50: 233 mg/kg
[1]
  Phenylquinone method (analgesic activity): 53.3
[2]
  ED50: > 2560 mg/kg

Reference: patent US3957788A (priority 1974, dated 1976)
